The source of these data is ChEMBL document CHEMBL4665737, “An assay for DNA polymerase β lyase inhibitors that engage the catalytic nucleophile for binding” (Bioorg Med Chem, 2020).

For test [1], the target named is DNA polymerase beta (Rattus norvegicus) (UniProt P06766). Kind of test: Binding affinity to wild type rat DNA polymerase beta assessed as inhibition of dRP excision in presence of 32P-end labelled duplex DNA at 10 uM by SDS PAGE analysis.
The target is the same in test [2]. Kind of test: Binding affinity to rat DNA polymerase beta with methyl-lysine modification at 72 assessed as inhibition of dRP excision in presence of 32P-end labelled duplex DNA at 10 uM by SDS PAGE.
The target is the same in test [3]. Kind of test: Binding affinity to rat DNA polymerase beta with homo-lysine modification at 72 assessed as inhibition of dRP excision in presence of 32P-end labelled duplex DNA at 10 uM by SDS PAGE.
The target in test [4] is DNA polymerase beta (Homo sapiens) (UniProt P06746). Kind of test: Binding affinity to human DNA polymerase beta with homo-lysine modification at 72 assessed as inhibition of dRP excision in presence of 32P-end labelled duplex DNA at 25 uM by SDS PAGE.
For test [5] the target is unchanged. Kind of test: Binding affinity to human DNA polymerase beta with methyl-lysine modification at 72 assessed as inhibition of dRP excision in presence of 32P-end labelled duplex DNA at 25 uM by SDS PAGE.
Test [6] has the same target. Kind of test: Binding affinity to wild type human DNA polymerase beta assessed as inhibition of dRP excision in presence of 32P-end labelled duplex DNA at 25 uM by SDS PAGE analysis.
The target of test [7] is DNA polymerase beta (Rattus norvegicus) (UniProt P06766). Kind of test: Binding affinity to rat DNA polymerase beta with homo-lysine modification at 72 assessed as inhibition of dRP excision in presence of 32P-end labelled duplex DNA at 50 uM by SDS PAGE.
Test [8] shares this target. Kind of test: Binding affinity to rat DNA polymerase beta with methyl-lysine modification at 72 assessed as inhibition of dRP excision in presence of 32P-end labelled duplex DNA at 50 uM by SDS PAGE.
Test [9] shares this target. Kind of test: Binding affinity to wild type rat DNA polymerase beta assessed as inhibition of dRP excision in presence of 32P-end labelled duplex DNA at 50 uM by SDS PAGE analysis.
For test [10] the target is unchanged. Kind of test: Binding affinity to wild type rat DNA polymerase beta assessed as inhibition of dRP excision in presence of 32P-end labelled duplex DNA at 25 uM by SDS PAGE analysis.
For test [11] the target is unchanged. Kind of test: Binding affinity to rat DNA polymerase beta with methyl-lysine modification at 72 assessed as inhibition of dRP excision in presence of 32P-end labelled duplex DNA at 25 uM by SDS PAGE.
Test [12] shares this target. Kind of test: Binding affinity to rat DNA polymerase beta with homo-lysine modification at 72 assessed as inhibition of dRP excision in presence of 32P-end labelled duplex DNA at 25 uM by SDS PAGE.

Activity calls are given as the source filed them. No cut-off for these calls is given here.

As usually defined, the inhibition is how much of the control response was suppressed. As to `CCCCCCCCC(O)C(O)CCCCCCCC(=O)O` (racemic), the inhibition result in test [1], in [2] and in test [3] was “Active” each time.

With `O=C(O)c1ccc(O)c(O)c1`, the inhibition entry in [4], in test [5] and in [6] was “Active” each time. For the same molecule, the inhibition stood at 25% in test [7], 50% in test [8] and 50% in test [9].

With `CC[C@H](/C=C/[C@@H](C)[C@H]1CC[C@H]2[C@@H]3CC=C4C[C@@H](O)CC[C@]4(C)[C@H]3CC[C@]12C)C(C)C`, the inhibition result in test [4], in test [5], in test [6], in [7], in [8] and in test [9] was “Active” in each case.

Take `CCCCCCCC[C@H]1O[C@H]1CCCCCCCC(=O)O` (racemic): the inhibition entry in test [10], in test [8], in test [9] and in test [11] was “Active” each time. The inhibition entry in test [7] and in [12] was “inactive” each time.

In the case of `CC[C@H](CC[C@@H](C)[C@H]1CC[C@H]2[C@@H]3CCC4C[C@@H](OC(=O)c5ccccc5)CC[C@]4(C)[C@H]3CC[C@]12C)C(C)C` (some centres not stated), the inhibition entry in test [4], in test [5], in [6], in test [7], in [8] and in test [9] was “Active” throughout.
